Converted amounts (≈) assume the structure as drawn. “Also recorded” adds a separate entry of the source. Where two headings read alike, the source gives them in different places.
Tests used:
[1] = Hygroscopicity by dynamic vapor sorption (DVS); format: physicochemical; details: for water uptake at 80% RH / water uptake at 95% RH: DVS isotherm; for water uptake at 80% RH / water uptake at 95% RH / form change before and after DVS (XRPD) / hygroscopicity: 25° C.; for form change before and after DVS (XRPD) / hygroscopicity / water uptake at RH less than or equal to 95%: DVS; for water uptake at RH less than or equal to 95%: RH less than or equal to 95% (description section)
Experimental: Dynamic vapor sorption (DVS) was measured via an SMS (Surface Measurement Systems) DVS Intrinsic system. The relative humidity at 25° C. was calibrated against the deliquescence point of LiCl, Mg(NO3)2, and KCl.
The hygroscopicity of Form A, Form C, and Form K were investigated at 25° C. using DVS. The XRPD patterns of each sample before and after DVS were compared in order to investigate any potential form change.

[2] = Crystal form and relative stability of slurried solids in EtOAc, checked by XRPD; format: physicochemical; details: for Crystal Form Checked by XRPD: ethyl acetate
Experimental: During solubility measurements, an XRPD pattern was detected in (a) slurries of Form A in EtOAc at 5° C. (after 1 h) and 20° C. (after 2 days), (b) slurries of Form C in EtOAc at 5° C. (after 1 h) and 20° C. (after 7 days). There was no direct match of this solid form's XRPD pattern to other crystal forms of Compound 1.
(§1) Solubility profiles of Forms A, C and P across a range of temperature can give an indication of the relative stability of different forms within different temperature ranges. Sufficient equilibrium solubility data were collected experimentally covering 5-70° C.

[3] = Equilibrium solubility of Forms A, C and P in ethyl acetate; format: physicochemical
Experimental: as §1

[4] = format: physicochemical
Experimental: In each experiment, approximately 10 to 20 mg of Form A was suspended in 0.5 mL of a solvent or mixture of solvents. After stirring at RT or 50° C. for 48 hours, the solids were isolated by centrifugation for analysis (wet sample). If the suspensions turned into clear solution, the clear solutions were kept at ambient conditions for slow evaporation.
In one embodiment, the inter-conversion between Forms A, C and K can be studied in a series of slurry conversion experiments conducted in ethyl acetate, n-butanol, and methyl tert-butyl ether (MBTE) at both room temperature (RT) and 50° C. Compound 1 can display moderate solubility, and may yield solvated forms during these screening experiments. The transition temperature between Forms A and C was estimated to be ˜17° C., and the transition temperature between Forms K and C was above 100° C.

[5] = format: physicochemical; details: for stability of the crystalline form in words: XRPD, ambient conditions
Experimental: A PANalytical Empyrean X-ray powder diffractometer with a 12-well auto-sampler stage was used for analysis throughout this study. Resolution calibration of the instrument was performed every 6 months, and sensitivity measurements were performed after the sample stage was changed. A silicon (Si) pressed powder sample was used as the reference standard.
The wet cake of Form P (˜5 min air) was dried in two ways: (a) under air at room temperature overnight, and (b) under vacuum at 40° C. for 3 hours. Both dried cakes were analyzed by XRPD, 1H-NMR, and TGA.

In the case of `C[C@@]1(O)CC[C@H]2[C@H](CC[C@@H]3[C@@H]2CC[C@]2(C)[C@@H](C(=O)Cn4cc(C#N)cn4)CC[C@@H]32)C1` [Form A], the “water uptake at 80% RH” value [1] is reported as 0.06 % by weight, the “water uptake at 95% RH” value [1] is reported as “less than 0.12 % by weight” and the “form change before and after DVS (XRPD)” value [1] is reported as “no form change”. The hygroscopicity [1] was “non-hygroscopic”, the “water uptake at RH less than or equal to 95%” value (shortened to “water uptake … to 95%”) [1] was “less than 0.30 weight percent” and the “solid form detected by XRPD in slurry in EtOAc” value (“solid form detected by XRPD” for short) ([2]; 5° C., after 1 h) was “Form P”. The “solid form detected by XRPD” value ([2]; 20° C., after 2 days) was “Form P”, the “Crystal Form Checked by XRPD” value ([2]; 20 ° C., 2 day) was “No Form Change” and the “Crystal Form Checked by XRPD” value ([2]; 30 ° C., 4 h) was “No Form Change”. The “Crystal Form Checked by XRPD” value ([2]; 40 ° C., 7 h) was “No Form Change”, the “Crystal Form Checked by XRPD” value ([2]; 50 ° C., 20 h) was “No Form Change” and the “Crystal Form Checked by XRPD” value ([2]; 60 ° C., 4 h) was “No Form Change”. The solubility at 2 day ([3]; 20 °C, organic solvent or mixture, thermodynamic from solid, equilibration 2 day) was 12.4 mg/mL (≈ 30.3 mM), the solubility at 4 h ([3]; 30 °C, organic solvent or mixture, thermodynamic from solid, equilibration 4 h) was 15.5 mg/mL (≈ 37.8 mM) and the solubility at 7 h ([3]; 40 °C, organic solvent or mixture, thermodynamic from solid, equilibration 7 h) was 18.8 mg/mL (≈ 45.9 mM). For the same compound, the solubility at 20 h ([3]; 50 °C, organic solvent or mixture, thermodynamic from solid, equilibration 20 h) was 25 mg/mL (≈ 61 mM) and the solubility at 4 h ([3]; 60 °C, organic solvent or mixture, thermodynamic from solid, equilibration 4 h) was 31.7 mg/mL (≈ 77.4 mM).
In the case of `C[C@@]1(O)CC[C@H]2[C@H](CC[C@@H]3[C@@H]2CC[C@]2(C)[C@@H](C(=O)Cn4cc(C#N)cn4)CC[C@@H]32)C1` [Form C], the “water uptake at 80% RH” value [1] is reported as 0.12 % by weight, the “water uptake at 95% RH” value [1] is reported as “less than 0.30 % by weight” and the “form change before and after DVS (XRPD)” value [1] is reported as “no form change”. The hygroscopicity [1] was “non-hygroscopic”, the “water uptake … to 95%” value [1] was “less than 0.32 weight percent” and the “solid form detected by XRPD” value ([2]; 5° C., after 1 h) was “Form P”. The “solid form detected by XRPD” value ([2]; 20° C., after 7 days) was “Form P”, the “relative stability of forms” value ([2]; EtOAc, across the entire processing temperature range (5-70° C. data)) was “more stable than Form A” and the “Crystal Form Checked by XRPD” value ([2]; 20 ° C., 2 day) was “No Form Change”. The “Crystal Form Checked by XRPD” value ([2]; 30 ° C., 4 h) was “No Form Change”, the “Crystal Form Checked by XRPD” value ([2]; 40 ° C., 7 h) was “No Form Change” and the “Crystal Form Checked by XRPD” value ([2]; 50 ° C., 20 h) was “No Form Change”. The “Crystal Form Checked by XRPD” value ([2]; 60 ° C., 4 h) was “No Form Change”, the Solubility ([3]; 20 ° C., equilibration 2 day) was 11.8 mg/mL (≈ 28.8 mM) and the Solubility ([3]; 30 ° C., equilibration 4 h) was 14.9 mg/mL (≈ 36.4 mM). It also gave a Solubility ([3]; 40 ° C., equilibration 7 h) of 17.9 mg/mL (≈ 43.7 mM), a Solubility ([3]; 50 ° C., equilibration 20 h) of 23.7 mg/mL (≈ 57.9 mM) and a Solubility ([3]; 60 ° C., equilibration 4 h) of 29.8 mg/mL (≈ 72.8 mM). For the same compound, the “transition temperature between Forms A and C” value ([4]; estimated from slurry conversion experiments) was about 17 °C, the “transition temperature between Forms K and C” value ([4]; from slurry conversion experiments) was “above 100 °C” and the “thermodynamic stability compared to Form A and Form K” value ([4]; slurry conversion in ethyl acetate, n-butanol or methyl tert-butyl ether, room temperature to 50° C.) was “more thermodynamically stable”.
For `C[C@@]1(O)CC[C@H]2[C@H](CC[C@@H]3[C@@H]2CC[C@]2(C)[C@@H](C(=O)Cn4cc(C#N)cn4)CC[C@@H]32)C1` [Form E], the “form after drying (XRPD)” value ([5]; drying at ambient (room temperature) conditions) was “transformed to a mixture of Forms A and C that exhibited low crystallinity”.
With `C[C@@]1(O)CC[C@H]2[C@H](CC[C@@H]3[C@@H]2CC[C@]2(C)[C@@H](C(=O)Cn4cc(C#N)cn4)CC[C@@H]32)C1` [Form H] the “stability of the crystalline form in words” value (from here on “stability … in words”) [5] was “metastable”.
With `C[C@@]1(O)CC[C@H]2[C@H](CC[C@@H]3[C@@H]2CC[C@]2(C)[C@@H](C(=O)Cn4cc(C#N)cn4)CC[C@@H]32)C1` [Form I] the “stability … in words” value [5] was “metastable”.
With `C[C@@]1(O)CC[C@H]2[C@H](CC[C@@H]3[C@@H]2CC[C@]2(C)[C@@H](C(=O)Cn4cc(C#N)cn4)CC[C@@H]32)C1` [Form J] the “stability … in words” value [5] was “metastable” and the “form after drying (XRPD)” value ([5]; drying at ambient conditions for 3 days) was “transforms to Form A”.
In the case of `C[C@@]1(O)CC[C@H]2[C@H](CC[C@@H]3[C@@H]2CC[C@]2(C)[C@@H](C(=O)Cn4cc(C#N)cn4)CC[C@@H]32)C1` [Form K], the “water uptake at 80% RH” value [1] is reported as 0.18 % by weight, the “water uptake at 95% RH” value [1] is reported as “less than 0.35 % by weight” and the “form change before and after DVS (XRPD)” value [1] is reported as “no form change”. For the same compound, the hygroscopicity [1] was “non-hygroscopic” and the “water uptake … to 95%” value [1] was “less than 0.35 weight percent”.
In the case of `C[C@@]1(O)CC[C@H]2[C@H](CC[C@@H]3[C@@H]2CC[C@]2(C)[C@@H](C(=O)Cn4cc(C#N)cn4)CC[C@@H]32)C1` [Form L], the “stability … in words” value [5] is reported as “metastable”.
With `C[C@@]1(O)CC[C@H]2[C@H](CC[C@@H]3[C@@H]2CC[C@]2(C)[C@@H](C(=O)Cn4cc(C#N)cn4)CC[C@@H]32)C1` [Form N] the “form after storage (XRPD)” value ([5]; overnight, under ambient conditions) was “transforms to Form A”.
In the case of `C[C@@]1(O)CC[C@H]2[C@H](CC[C@@H]3[C@@H]2CC[C@]2(C)[C@@H](C(=O)Cn4cc(C#N)cn4)CC[C@@H]32)C1` [Form P], the “XRPD pattern of dried cake” value ([5]; wet cake dried under air at room temperature overnight) is reported as “conforming to Form P”, the “XRPD pattern of dried cake” value ([5]; wet cake dried under vacuum at 40° C. for 3 hours) is reported as “conforming to Form A” and the “relative stability of forms” value ([2]; EtOAc, ≤20° C.) is reported as “more stable than both Forms A and C; also recorded: more stable than Form C”. The “stability in EtOAc” value ([2]; EtOAc, ≥35° C.) was “converts to Form A”, the “Crystal Form Checked by XRPD” value ([2]; 5 ° C., 20 h) was “Form P” and the “Crystal Form Checked by XRPD” value ([2]; 10 ° C., 3 day) was “Form P”. The “Crystal Form Checked by XRPD” value ([2]; 15 ° C., 2 day) was “Form P”, the “Crystal Form Checked by XRPD” value ([2]; 20 ° C., 2 day) was “No Form Change” and the “Crystal Form Checked by XRPD” value ([2]; 25 ° C., 20 h) was “Form P”. For the same compound, the “Crystal Form Checked by XRPD” value ([2]; 30 ° C., 20 h) was “Form P”, the “Crystal Form Checked by XRPD” value ([2]; 40 ° C., 24 h) was “Form P to Form” and the solubility at 20 h ([3]; 5 °C, organic solvent or mixture, thermodynamic from solid, equilibration 20 h) was 5.4 mg/mL (≈ 13.2 mM). It also gave a solubility at 3 day ([3]; 10 °C, organic solvent or mixture, thermodynamic from solid, equilibration 3 day) of 6.6 mg/mL (≈ 16.1 mM), a solubility at 2 day ([3]; 15 °C, organic solvent or mixture, thermodynamic from solid, equilibration 2 day) of 8 mg/mL (≈ 19.5 mM) and a Solubility ([3]; 20 ° C., equilibration 2 day) of 11.4 mg/mL (≈ 27.8 mM). The solubility at 20 h ([3]; 25 °C, organic solvent or mixture, thermodynamic from solid, equilibration 20 h) was 12.6 mg/mL (≈ 30.8 mM) and the solubility at 20 h ([3]; 30 °C, organic solvent or mixture, thermodynamic from solid, equilibration 20 h) was 13.5 mg/mL (≈ 33 mM).
In the case of `C[C@@]1(O)CC[C@H]2[C@H](CC[C@@H]3[C@@H]2CC[C@]2(C)[C@@H](C(=O)Cn4cc(C#N)cn4)CC[C@@H]32)C1` [Forms A and K (with Form C seeds)], the “Final Form after slurry conversion” value ([4]; Ethyl acetate, RT) is reported as “Form C”.
With `C[C@@]1(O)CC[C@H]2[C@H](CC[C@@H]3[C@@H]2CC[C@]2(C)[C@@H](C(=O)Cn4cc(C#N)cn4)CC[C@@H]32)C1` [Forms A and K] the “Final Form after slurry conversion” value ([4]; Ethyl acetate, 50° C.) was “Form C”.
For `C[C@@]1(O)CC[C@H]2[C@H](CC[C@@H]3[C@@H]2CC[C@]2(C)[C@@H](C(=O)Cn4cc(C#N)cn4)CC[C@@H]32)C1` [Forms A, C and K], the “Final Form after slurry conversion” value ([4]; MBTE, 50° C.) was “Form C”, the “Final Form after slurry conversion” value ([4]; MBTE, RT) was “Form C” and the “Final Form after slurry conversion” value ([4]; n-Butanol, 50° C.) was “Form C”. For the same compound, the “Final Form after slurry conversion” value ([4]; n-Butanol, RT) was “Form C”.

Reference: patent US11236121B2, “Crystalline 19-nor C3,3-disubstituted C21-N-pyrazolyl steroid” (priority 2016, dated 2022)
